The values that follow come from US20220387429A1, “USE OF IMIDAZOPYRIMIDINE OR IMIDAZOTRIAZINE COMPOUND FOR PREVENTION, ALLEVIATION, OR TREATMENT OF DEVELOPMENTAL DISABILITY” (SK BIOPHARMACEUTICALS CO., LTD., priority 2019, published 2022).

In experiment [1] the test system is Fmr1 gene knockout mouse model. Nature of the experiment: Contextual fear conditioning experiment. It counts as in vivo. As to conditions: Fmr1 gene knockout mice; 2 mg/kg intraperitoneally twice a day for 6 weeks; versus vehicle-administered knockout group. An excerpt:
(§1) An Fmr1 gene knockout mouse model was used as an animal model of fragile X syndrome. This model lacks FMRP protein due to disruption of the Fmr1 gene. Typical phenotypes of this mouse model include audiogenic seizure, hyperlocomotor activity, cognitive deficit, concentration deficit disorder, and the like.
(§2) Male Fmr1 C57BL/6J knock-out mice derived from the early group imported from Jackson Laboratories were used in the experiments. The experimental animals were raised in a light-controlled environment (illuminated for 12 hours/nonilluminated for 12 hours) and maintained at a temperature of 21° C.±2° C. and a relative humidity of about 55%±5%. Food and water were ad libitum fed. An anticonvulsant efficacy experiment on audiogenic seizure, a contextual fear conditioning experiment, an open field test, and a marble burying test in the Fmr1 gene knockout mouse model was performed by Fragile X Syndrome Drug Validation Initiative (FRAXA-DVI). The mice were randomly divided into groups and the test was performed under illumination.
The test compound was dissolved in 10% DMSO (dimethylsulfoxide)+30% PEG 300 in DW (distilled water), and administered intraperitoneally at a dose of 2 mg/kg twice a day for 6 weeks. […]
(§3) After data analysis by ANOVA, the effect was defined as significant when p<0.05. All results were expressed as mean±SEM.

The subject of experiment [2] is Fmr1 gene knockout mouse model. Nature of the experiment: Marble burying test. Format: in vivo. The following applies: Fmr1 gene knockout mice; 2 mg/kg intraperitoneally twice a day for 6 weeks; versus vehicle-administered knockout group.
Excerpt: as §1
as §2, with “The mice were randomly divided into groups and the test was performed under illumination.” left out
After the vehicle or test compound was administered intraperitoneally at a dose of 2 mg/kg twice a day for 6 weeks, a hippocampal function-dependent marble burying test was performed. […] The mouse was placed and left for 30 minutes, then the number of marbles buried by the mouse was counted.
as §3

A further experiment deals with Wild-type mice. Put plainly: Audiogenic seizure test in wild-type mice. Format: in vivo, mouse. As to conditions: 2 mg/kg intraperitoneally twice a day for 6 weeks. The procedure:
[The source words this procedure for another variant and reports this variant under the same test.] as §2
(§4) The test compound was dissolved in 10% DMSO (dimethylsulfoxide)+30% PEG 300 in DW (distilled water), and administered intraperitoneally at a dose of 2 mg/kg twice a day for 6 weeks. To a control group, vehicle (10% DMSO (dimethylsulfoxide)+30% PEG 300 in DW (distilled water)) was administered.
(§5) Ten mice per group were used.
(§6) After the vehicle or test compound was administered intraperitoneally at a dose of 2 mg/kg twice a day for 6 weeks, the mice were placed in a chamber and exposed to an alarm. The response of the mice during the test was evaluated numerically by the following criteria according to the intensity of seizure, and the survival rate was also observed.
(§7) 1: Wild running and jumping

The test system of experiment [3] is Fmr1 gene knockout mouse model. Put plainly: Open field test. Format: in vivo. As to conditions: Fmr1 gene knockout mice; 2 mg/kg intraperitoneally twice a day for 6 weeks; versus wild-type mice, P value of 0.0001 or less.
Excerpt: as §1
Male Fmr1 C57BL/6J knock-out mice derived from the early group imported from Jackson Laboratories were used in the experiments. The experimental animals were raised in a light-controlled environment (illuminated for 12 hours/nonilluminated for 12 hours) and maintained at a temperature of 21° C.±2° C. and a relative humidity of about 55%±5%. Food and water were ad libitum fed. […]
After the vehicle or test compound was administered intraperitoneally at a dose of 2 mg/kg twice a day for 6 weeks, an open field test was performed to observe the efficacy behavior of mice who fearlessly stepped out to the center of the open field. […] The number of times the mouse crossed the center of the open field was measured by the breakage of the horizontal beam due to the mouse's movement. […]
as §3

The subject of experiment [4] is Fmr1 gene knockout mouse model. Put plainly: Audiogenic seizure test, anticonvulsant efficacy. As to conditions: Fmr1 gene knockout mice, 2 mg/kg intraperitoneally twice a day for 6 weeks. It counts as in vivo.
Excerpt: as §1, §2, §4, §5, §6, §7

Turning to `Fc1ccc(-c2cnc3nc(COc4ccccn4)cn3c2)c(C(F)(F)F)c1` [test compound, 6-[4-fluoro-2-(trifluoromethyl)phenyl]-2-(2-pyridyloxymethyl)imidazo[1,2-a]pyrimidine], the “Freezing behavior (contextual fear conditioning, FIG. 1)” value in experiment [1] was “significantly increased freezing behavior compared to the vehicle-administered group”. For the same compound, the “Number of marbles buried (FIG. 3)” value in experiment [2] is listed as “increased compared to that in the vehicle-administered group of Fmr1 gene knockout mice”. In the experiment with Wild-type mice, the Audiogenic seizure phenotype entry was “no mice showed audiogenic seizure phenotype”. The “Seizures of 3 or more points” value in the experiment on Wild-type mice (mice affected/mice in group) is recorded as 0/10; in experiment [4] (mice affected/mice in group) it was 5/10. The Wild running in the experiment with Wild-type mice (mice affected/mice in group) is on record as 0/10; in experiment [4] (mice affected/mice in group) it was 6/10. The “Vulnerability to audiogenic seizure” value in the experiment on Wild-type mice (proportion of wild running mice) amounted to 0%; in experiment [4] (proportion of wild running mice, vehicle group 90%, 2 mg/kg), 60%. Further, the Survival rate with Wild-type mice (survivors/mice in group) is 10/10; in experiment [4] (survivors/mice in group), 5/10. Moreover, in experiment [3], the “Number of times the mouse crossed the center (open field, FIG. 2)” value is given as “significant increase in movement compared to the wild-type mice”.
